The values below come from patent US9486507B2, “Pro-coagulant compounds and methods of use thereof” (priority 2011, dated 2016).

Values joined by “and” are separate entries in the source; they are usually repeats but may differ in a detail not shown here. Equal values may be shown once.

Experiment [1] deals with human HemA (severe) whole blood. Description: ROTEM in human HemA whole blood. In kind it is biochemical. Conditions: 30 min pre-incubation.
Procedure: Briefly, lyophilized and citrated FVIII deficient human plasma (Siemens) was reconstituted with 1 mL of distilled water, allowed to stand for 20 min at RT and mixed well before use. Alternatively, an aliquot of citrated (non-lyophilized) FVIII deficient human plasma (HRF, George King, Precision Biologics, or real-time donors) was thawed for 10 min in a 37° C. water bath and when needed centrifuged at 2800 g for 5 min at 25° C. FVIII deficient plasma was spiked with lyophilized platelets (Helena Laboratories, final concentration 0.5×10^8 cells/ml) and compounds, FVIII, or both compound and FVIII. Dilutions of compounds of the present disclosure and controls, such as FVIII, were prepared in PBS (—Ca, —Mg). Next, 300 μl of the spiked plasma was transferred to a ROTEM cup already containing 20 μl of StarTEM (concentrated calcium chloride solution) and 20 μl of lipidated TF (American Diagnostica, final concentration 10 fM) or Kaolin (Sigma-Aldrich, final concentration 0.4 μg/ml) and recording was initiated. The cups were maintained at 37° C. during the testing.
The only difference from the above described plasma Rotem is that the experiment is done in human HemA (severe) whole blood. No platelets were added as they are already present the in whole blood.
Another experiment has as its target FIXa (Homo sapiens, UniProt P00740). In words: FXa generation assay with human FIXa. In kind it is biochemical. Conditions: for Vmax: class symbols. Details: purchased Haematologic Technologies.
A further experiment relates to platelets. In words: Platelet aggregation (aggregometer). To be noted: compound 5 about 30 μM; compound 22 10 μM and 30 μM. The class given is cell-based. From the text:
ADP was used as a positive control for platelet aggregation.

The test system of experiment [2] is FVIII deficient human plasma. In words: Thrombin generation assay (TGA) in FVIII-deficient plasma. The class given is biochemical. Set-up: key to Thrombin Above Baseline (nM): 1-10 nM (1) or 1-29 nM (2) (+); 11-20 nM (1) or 30-59 nM (2) (++); 21-30 nM (1) or 60-90 nM (2) (+++); >30 nM (1) or >90 nM (2) (++++); At or about baseline (−).
Experiment [3] concerns FVIII deficient human plasma. In words: Rotational thromboelastometry (ROTEM) in FVIII-deficient human plasma. The class given is biochemical. Conditions: human HemA plasma (HRF).
Procedure: Compounds of the present disclosure were tested by rotational thromboelastometry to evaluate coagulation parameters such as clotting time (CT), α-angle, clot formation time (CFT), maximum clot firmness (MCF). Briefly, lyophilized and citrated FVIII deficient human plasma (Siemens) was reconstituted with 1 mL of distilled water, allowed to stand for 20 min at RT and mixed well before use. Alternatively, an aliquot of citrated (non-lyophilized) FVIII deficient human plasma (HRF, George King, Precision Biologics, or real-time donors) was thawed for 10 min in a 37° C. water bath and when needed centrifuged at 2800 g for 5 min at 25° C. FVIII deficient plasma was spiked with lyophilized platelets (Helena Laboratories, final concentration 0.5×10^8 cells/ml) and compounds, FVIII, or both compound and FVIII. Dilutions of compounds of the present disclosure and controls, such as FVIII, were prepared in PBS (—Ca, —Mg). Next, 300 μl of the spiked plasma was transferred to a ROTEM cup already containing 20 μl of StarTEM (concentrated calcium chloride solution) and 20 μl of lipidated TF (American Diagnostica, final concentration 10 fM) or Kaolin (Sigma-Aldrich, final concentration 0.4 μg/ml) and recording was initiated. The cups were maintained at 37° C. during the testing.
Experiment [4] relates to 10% FVIII-deficient human plasma. In words: Modified activated partial thromboplastin time (aPTT*) assay. The class given is biochemical. The method, then: For the activated Partial Thromboplastin Time (aPTT) assay peptides to be tested were first diluted in 10% FVIII-deficient human plasma. For the aPTT* the peptides were diluted in 10% FVIII-deficient human plasma that contained traces of hFIXa (anywhere between 0 and 8.8 nM hFIXa depending on the assay) in Tris/NaCl/BSA buffer. The peptides were incubated for 10 minutes at room temperature and then assayed for clotting on a Sysmex instrument that recorded the clotting time observed for each sample. The times were compared to those of a standard curve derived from standards with known FVIII activity (U/mL) in order to determine the clotting outcome.

The mark [5] stands for this setting: FXa generation assay, 10 nM hFIXa, 100 nM hFX.
The mark [6] stands for this setting: Precision Biologics FVIII-deficient plasma (2), first Baseline (2) series, 2.5 μM.
Where [7] appears, read: Precision Biologics FVIII-deficient plasma (2), first Baseline (2) series, 5 μM.
[8] abbreviates: Precision Biologics FVIII-deficient plasma (2), first Baseline (2) series, 10 μM.
Where [9] appears, read: Precision Biologics FVIII-deficient plasma (2), second Baseline (2) series, 2.5 μM.
Where [10] appears, read: Precision Biologics FVIII-deficient plasma (2), second Baseline (2) series, 5 μM.
Setting [11] is: Precision Biologics FVIII-deficient plasma (2), second Baseline (2) series, 10 μM.
The mark [12] stands for this setting: Precision Biologics FVIII-deficient plasma (2), second Baseline (2) series, 20 μM.

Sequence of FIXa (P00740 47-191 limits assumed): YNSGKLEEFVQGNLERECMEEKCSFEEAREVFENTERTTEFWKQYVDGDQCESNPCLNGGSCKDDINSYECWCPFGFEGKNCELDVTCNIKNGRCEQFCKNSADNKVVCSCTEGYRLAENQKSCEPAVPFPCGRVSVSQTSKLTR
Sequence of FIXa (P00740 227-461 limits assumed): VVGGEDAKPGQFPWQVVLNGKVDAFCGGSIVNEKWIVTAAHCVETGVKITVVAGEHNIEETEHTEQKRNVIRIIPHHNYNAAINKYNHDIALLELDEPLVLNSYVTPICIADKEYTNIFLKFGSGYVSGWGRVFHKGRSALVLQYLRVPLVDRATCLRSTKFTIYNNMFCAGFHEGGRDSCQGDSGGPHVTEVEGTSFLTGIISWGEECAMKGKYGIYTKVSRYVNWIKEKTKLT
Source text for FIXa: FXa generation was utilized to assess the capability of the compounds of the present disclosure to enhance the catalytic activities of FIXa and/or FVIIa.
To measure the catalytic activity of FIXa, FIXa was mixed with FX and phospholipids in the presence of calcium chloride. Under these conditions FIXa cleaves the zymogen FX into the active form FXa.
The generation of FXa is monitored by the change in absorbance of the reaction at 405 nm due to the presence of a cleavable FXa chromogenic substrate (S-2765; Z-D-Arg-Gly-Arg-pNA; cleavage of p-nitroaniline). […] The kit contains all the FXa generation components, however, FIXa and FX obtained from this kit are from a bovine origin and were replaced with purified human FIXa or human FVIIa and human FX (Haematologic Technologies).
The assay was also modified to enhance the screening throughput. Instead of the sequential addition, all the assay components were mixed and added simultaneously to the purified compound to be assayed. A 125 μl reaction mix of the assay components was prepared in the buffer supplied by the manufacturer (50 mM Tris 7.3, and 1% BSA). […] The reaction mix (125 ul) was then added to 25 ul of compound diluted in water in a Costar-3651 flat bottom 96-well plate. […] The absorbance was monitored over a period of 1 hour at 405 nm using a plate reader (Synergy 2, Biotek).
The 405 nm absorbance data were then analyzed to obtain the slope of the first derivative which reflects the rate of change in absorbance. The first derivative slope data for each compound concentration were plotted against the compound concentration and fitted to a four-parameter equation to obtain the EC50 and Vmax values for each compound tested.

Take “PRIRTVGPGSRSASGKLTCLASYCWLFWTGIA [Compound 21]”: the “Clotting time, sec” value in experiment [1] (2.5 μM) was 1,057 sec and 1,090 sec. Besides, the “α-angle, degrees” value is 32 degrees in experiment [1] (2.5 μM); 32 degrees in experiment [1] (5 μM); 44 degrees and 52 degrees in experiment [1] (10 μM); 42 degrees and 43 degrees in experiment [1] (20 μM). Also, the “Clotting time” value is 930 s in experiment [1] (5 μM); 748 s and 703 s in experiment [1] (10 μM); 952 s and 625 s in experiment [1] (20 μM). The Vmax result at FIXa (setting [5]) is “(++++) ((++++)>3)”.
As to “PRIRTVGPGSRSASGKSTCLASYCWLFWTGIA [Compound 22]”, in the experiment with platelets, the “induction of platelet aggregation” value is “did also not induce platelet aggregation”.
Take PRISTVGPGSRSASGKLTCLASYCWLFWTGIA: the “Thrombin Above Baseline (nM)” value in experiment [2] (setting [6]), in experiment [2] (setting [7]) and in experiment [2] (setting [8]) was “+ (1-10 nM (1) or 1-29 nM (2) (+))” each time. In addition, the Vmax result at FIXa (setting [5]) was “(++++) ((++++)>3)”.
“PRIrTVGPGSrSASGKLTCLASYCWLFWTGIA [Compound 23]”: the “Clotting time, sec (avg.)” value was 983 s in experiment [3] (2.5 μM), 673 s in experiment [3] (5 μM), 486 s in experiment [3] (10 μM) and 472 s in experiment [3] (20 μM). Besides, the “α-angle, degrees (avg.)” value in experiment [3] (2.5 μM) is on record as 13 degrees; in experiment [3] (5 μM), 22 degrees; in experiment [3] (10 μM), 32 degrees; in experiment [3] (20 μM) it was 39 degrees. Also, the Vmax result on FIXa (setting [5]) was “(++++) ((++++)>3)”.
As for PRSRTVGPGSRSASGKLTCLASYCWLFWTGIA, the entries for the “Thrombin Above Baseline (nM)” value in experiment [2] (setting [6]), in experiment [2] (setting [7]) and in experiment [2] (setting [8]) were “++ (11-20 nM (1) or 30-59 nM (2) (++))”, “+++ (21-30 nM (1) or 60-90 nM (2) (+++))” and “+++ (21-30 nM (1) or 60-90 nM (2) (+++))”, respectively. In addition, the Vmax entry on FIXa (setting [5]) is listed as “(++++) ((++++)>3)”.
In the case of PRSRTVGPGSRSASGKSTCLASYCWLFWTGIA, the “Thrombin Above Baseline (nM)” value in experiment [2] (setting [9]) is “++ (11-20 nM (1) or 30-59 nM (2) (++))”; in experiment [2] (setting [10]), “+++ (21-30 nM (1) or 60-90 nM (2) (+++))”; in experiment [2] (setting [11]), “++++ (>30 nM (1) or >90 nM (2) (++++))”; in experiment [2] (setting [12]), “++++ (>30 nM (1) or >90 nM (2) (++++))”. In addition, the Vmax entry on FIXa (setting [5]) was “(++++) ((++++)>3)”.
Consider PSIRTVGPGSRSASGKLTCLASYCWLFWTGIA, for which the “Thrombin Above Baseline (nM)” value in experiment [2] (setting [6]), in experiment [2] (setting [7]) and in experiment [2] (setting [8]) was “+ (1-10 nM (1) or 1-29 nM (2) (+))” each time. Moreover, the Vmax entry on FIXa (setting [5]) was “(++++) ((++++)>3)”.
In the case of SRIRTVGPGSRSASGKLTCLASYCWLFWTGIA, the “Thrombin Above Baseline (nM)” value in experiment [2] (setting [6]) is reported as “++ (11-20 nM (1) or 30-59 nM (2) (++))”; in experiment [2] (setting [7]), “+++ (21-30 nM (1) or 60-90 nM (2) (+++))”; in experiment [2] (setting [8]), “++++ (>30 nM (1) or >90 nM (2) (++++))”. Further, the Vmax entry at FIXa (setting [5]) is “(++++) ((++++)>3)”.
Regarding SRIRTVGPGSRSASGKSTCLASYCWLFWTGIA, the “Thrombin Above Baseline (nM)” value in experiment [2] (setting [9]) is “+++ (21-30 nM (1) or 60-90 nM (2) (+++))”; in experiment [2] (setting [10]), “++++ (>30 nM (1) or >90 nM (2) (++++))”; in experiment [2] (setting [11]), “++++ (>30 nM (1) or >90 nM (2) (++++))”. Besides, the Vmax result on FIXa (setting [5]) is “(++++) ((++++)>3)”.
Take SRIRTVSPGSRSASGKSTCLASYCWLFWTGIA: the “Thrombin Above Baseline (nM)” value was “+++ (21-30 nM (1) or 60-90 nM (2) (+++))” in experiment [2] (setting [9]), “+++ (21-30 nM (1) or 60-90 nM (2) (+++))” in experiment [2] (setting [10]), “++++ (>30 nM (1) or >90 nM (2) (++++))” in experiment [2] (setting [11]) and “++++ (>30 nM (1) or >90 nM (2) (++++))” in experiment [2] (setting [12]). Besides, the Vmax entry on FIXa (setting [5]) is “(++++) ((++++)>3)”.
For the substance SRSRTVSPGSRSASGKSTCLASYCWLFWTGIA, the results for the “Thrombin Above Baseline (nM)” value in experiment [2] (setting [9]), in experiment [2] (setting [10]) and in experiment [2] (setting [11]) were “+++ (21-30 nM (1) or 60-90 nM (2) (+++))”, “++++ (>30 nM (1) or >90 nM (2) (++++))” and “++++ (>30 nM (1) or >90 nM (2) (++++))”, respectively. The Vmax entry on FIXa (setting [5]) is reported as “(++++) ((++++)>3)”.
Regarding k-MeLeu-TCLASYCWLF, the “Thrombin Above Baseline (nM)” value in experiment [2] (HRF FVIII-deficient plasma (1), 2.5 μM) is “+ (1-10 nM (1) or 1-29 nM (2) (+))”; in experiment [2] (HRF FVIII-deficient plasma (1), 5 μM) it was “−”; in experiment [2] (HRF FVIII-deficient plasma (1), 10 μM), “−”; in experiment [2] (HRF FVIII-deficient plasma (1), 20 μM), “+ (1-10 nM (1) or 1-29 nM (2) (+))”. The Vmax entry on FIXa (FXa generation assay using human FIXa) was “(++++) ((++++)>3)”; on FIXa (FXa generation assay, 10 nM hFIXa, 100 nM hFX, listed as SEQ ID NO: 232) it was “(+++) ((+++)>2)”.
Turning to k-MeLeu-TCLASYCWLF [Compound 2], the “Clotting time” value in experiment [4] (aPTT* with FIXa, 5 μM) stood at 50.3 s; in experiment [4] (aPTT* with FIXa, 10 μM), 42.2 s; in experiment [4] (aPTT* with FIXa, 20 μM), 42.3 s; in experiment [4] (aPTT*, FIXa 1 nM) it was 91.4 s; in experiment [4] (aPTT*, FIXa 2 nM), 49.6 s; in experiment [4] (aPTT*, FIXa 4 nM) it was 42.7 s. Besides, the “Clotting time” value in experiment [4] (aPTT*, FIXa 8 nM) is 37.1 s. For the same substance, the “Clotting time, sec” value was 51.1; sec in experiment [4] (aPTT* with FIXa, 5 μM); 42.9; sec in experiment [4] (aPTT* with FIXa, 10 μM); 42.4; sec in experiment [4] (aPTT* with FIXa, 20 μM); 86.8; sec in experiment [4] (aPTT*, FIXa 1 nM); 51.3; sec in experiment [4] (aPTT*, FIXa 2 nM); 46.0; sec in experiment [4] (aPTT*, FIXa 4 nM). Also, in experiment [4] (aPTT*, FIXa 8 nM), the “Clotting time, sec” value is on record as 34.4; sec. The Vmax result on FIXa (setting [5]) is “(++++) ((++++)>3)”. Besides, the figures for the “Vmax (mOD/min min)” value on FIXa (PL: No) and on FIXa (PL: Yes) were 3.05 mOD/min min and 4.22 mOD/min min, respectively.
